Several values for one entry are separate records, joined by “and”; a condition that tells them apart may be missing. Equal values may be shown once. Inconclusive results and toxic doses are left out. The calls were made as follows: active = survival T/C of 150% or more; inactive = T/C below 125% in these data.
Test system: P388 leukemia ip, CD2F1 mice, survival T/C
Assay: NCI In Vivo Anticancer Drug Screen. Data for tumor model P388 Leukemia (intraperitoneal) in CD2F1 (CDF1) mice
Conditions: endpoint: median survival time, higher = longer survival
How it was run: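 Mice carrying the transplanted tumor received test compound or vehicle. Survival was recorded in each group, and the value is the treated-group measurement divided by that of the vehicle-treated control group.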

[1] = dose: 50.0 mg/kg/injection, schedule: Q01DX009 (ip), vehicle: saline with Tween-80
[2] = dose: 100.0 mg/kg/injection, schedule: Q01DX009 (ip), vehicle: saline with Tween-80
[3] = dose: 200.0 mg/kg/injection, schedule: Q01DX009 (ip), vehicle: saline with Tween-80
[4] = dose: 100.0 mg/kg/injection, schedule: Q04DX003 (ip), vehicle: saline with Tween-80
[5] = dose: 200.0 mg/kg/injection, schedule: Q04DX003 (ip), vehicle: saline with Tween-80
[6] = dose: 400.0 mg/kg/injection, schedule: Q04DX003 (ip), vehicle: saline with Tween-80
[7] = dose: 50.0 mg/kg/injection, schedule: Q01DX005 (ip), vehicle: Klucel (hydroxypropylcellulose) (HPC)
[8] = dose: 100.0 mg/kg/injection, schedule: Q01DX005 (ip), vehicle: Klucel (hydroxypropylcellulose) (HPC)
[9] = dose: 200.0 mg/kg/injection, schedule: Q01DX005 (ip), vehicle: Klucel (hydroxypropylcellulose) (HPC)

Measured: T/C

Cc1ccc2c(c1)C(O)(CC(=O)c1ccccc1)C(=O)N2 (stereo not drawn)
inactive: [1] 99 % of control | [2] 96 % of control | [3] 95 % of control

CC(=O)/C=C/C=C\C=C/N=C(c1ccccc1)c1ccccc1
inactive: dose: 50.0 mg/kg/injection, schedule: Q04DX003 (ip), vehicle: saline with Tween-80 95 % of control | [4] 93 % of control | [5] 93 % of control

CN1C(c2ccccc2)CC(=O)C(N)C1c1ccccc1 (stereo not drawn)
inactive: dose: 50.0 mg/kg/injection, schedule: Q01DX005 (ip), vehicle: distilled water + Tween-80 92 % of control | dose: 100.0 mg/kg/injection, schedule: Q01DX005 (ip), vehicle: distilled water + Tween-80 90 % of control | dose: 200.0 mg/kg/injection, schedule: Q01DX005 (ip), vehicle: distilled water + Tween-80 92 % of control

COC(=O)/C=C/c1c(=O)c(C(=O)OC)cn2cnc3nc[nH]c3c12
inactive: [4] 97 % of control | [5] 93 % of control | [6] 98 % of control

CC(C)c1cc(C(=O)O)c(O)c(C(C)C)c1.CC(C)c1cc(C(=O)O)c(O)c(C(C)C)c1.[Cu]
inactive: dose: 12.5 mg/kg/injection, schedule: Q01DX005 (ip), vehicle: saline with Tween-80 96 % of control | dose: 25.0 mg/kg/injection, schedule: Q01DX005 (ip), vehicle: saline with Tween-80 90 % of control | dose: 50.0 mg/kg/injection, schedule: Q01DX005 (ip), vehicle: saline with Tween-80 98 % of control

CN(c1ccccc1)C1C=C(c2ccccc2)OC(=O)C1(Cl)Cl (stereo not drawn)
inactive: [1] 92 % of control | [2] 95 % of control | [3] 98 % of control

N#C/C(N)=C(\C#N)N=c1c(-c2ccccc2)c1-c1ccccc1
inactive: [7] 102 % of control and 103 % of control | [8] 103 % of control and 113 % of control | [9] 109 % of control and 122 % of control

CC1(C)SC2C(NC(=O)C(N)c3ccccc3)C(=O)N2C1C(=O)O (stereo not drawn)
inactive: [4] 95 % of control | dose: 150.0 mg/kg/injection, schedule: Q01DX009 (ip), vehicle: saline with Tween-80 100 % of control | [5] 100 % of control | dose: 300.0 mg/kg/injection, schedule: Q01DX009 (ip), vehicle: saline with Tween-80 109 % of control | [6] 100 % of control | dose: 600.0 mg/kg/injection, schedule: Q01DX009 (ip), vehicle: saline with Tween-80 109 % of control

COC(=O)c1nc(=S)[nH]c(C(=O)OC)c1C(=O)c1ccc(OC)cc1
inactive: dose: 60.0 mg/kg/injection, schedule: Q01DX005 (ip), vehicle: saline 100 % of control | dose: 120.0 mg/kg/injection, schedule: Q01DX005 (ip), vehicle: saline 96 % of control | dose: 240.0 mg/kg/injection, schedule: Q01DX005 (ip), vehicle: saline 103 % of control

COC(=O)C1C2C(C)CC3(CC12C)OCCO3 (stereo not drawn)
inactive: [2] 91 % of control | [3] 91 % of control | dose: 400.0 mg/kg/injection, schedule: Q01DX009 (ip), vehicle: saline with Tween-80 91 % of control

O=[N+]([O-])c1ccc(C2=Nc3ccccc3N=C(c3ccccc3O)C2)cc1
inactive: dose: 0.93 mg/kg/injection, schedule: Q01DX005 (ip), vehicle: saline with Tween-80 100 % of control | dose: 1.87 mg/kg/injection, schedule: Q01DX005 (ip), vehicle: saline with Tween-80 113 % of control | dose: 3.75 mg/kg/injection, schedule: Q01DX005 (ip), vehicle: saline with Tween-80 91 % of control and 94 % of control | dose: 15.0 mg/kg/injection, schedule: Q01DX005 (ip), vehicle: saline with Tween-80 91 % of control | dose: 240.0 mg/kg/injection, schedule: Q01DX005 (ip), vehicle: saline with Tween-80 90 % of control

CC(CO)c1cc2c(cc1O)[C@@]1(C)CCCC(C)(C)[C@@H]1CC2 (stereo partly drawn)
inactive: dose: 25.0 mg/kg/injection, schedule: Q01DX005 (ip), vehicle: Klucel (hydroxypropylcellulose) (HPC) 99 % of control | [7] 102 % of control | [8] 89 % of control | [9] 89 % of control and 93 % of control | dose: 400.0 mg/kg/injection, schedule: Q01DX005 (ip), vehicle: Klucel (hydroxypropylcellulose) (HPC) 88 % of control

Source: PubChem BioAssay AID330 (DTP/NCI, 2004)
